Consider eight molecules from PubChem BioAssay (NCI).

Several values for one entry are separate records, joined by “and”; a condition that tells them apart may be missing. Identical values can stand only once.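 These data come from cells grown in 96-well plates and exposed to compound for 48 hours at five concentrations. Here, GI50 denotes the concentration required for 50% inhibition of growth. TGI: concentration producing complete growth inhibition.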 Bounds are passed on as bounds.

For orientation: GI50 means the concentration giving 50% growth inhibition. As a reminder, the TGI is the concentration giving total growth inhibition. Lower therefore signals more potent growth arrest.

Some test systems named below: ACHN renal; COLO 205 colon; HOP-92 NSCLC; MCF7 breast; MDA-MB-435; NCI-H226 lung; NCI-H460 lung; NCI/ADR-RES ovarian; OVCAR-4 ovarian; UACC-257 melanoma.
Holding throughout (experiment): DTP human tumour cell line panel, 48 h

`COC(=O)[C@]12CC[C@@H](C)[C@H](C)[C@@H]1C1=CC[C@@H]3[C@@]4(C)C[C@@H](O)[C@H](O)[C@@](C)(CO)[C@@H]4[C@H](O)C[C@@]3(C)[C@]1(C)CC2`: the GI50 in the assay with ACHN renal is 7.8 µM; in the assay with COLO 205 colon, 14.8 µM; in the assay on HOP-92 NSCLC, 12.9 µM; in the assay with MCF7 breast, 12.1 µM; with MDA-MB-435 it was 13 µM; with NCI-H226 lung, 17.8 µM. For the same molecule, the GI50 in the assay with NCI-H460 lung is 14.8 µM; in the assay with NCI/ADR-RES ovarian it was 15.5 µM; in the assay on OVCAR-4 ovarian, 12.1 µM; with UACC-257 melanoma, 16.8 µM. Further, the TGI was 21.6 µM with ACHN renal; 31.2 µM in the assay on COLO 205 colon; 27.9 µM with HOP-92 NSCLC; 41 µM with MCF7 breast; 27.3 µM in the assay with MDA-MB-435; 45 µM with NCI-H226 lung. Further, the TGI in the assay on NCI-H460 lung came to 33.6 µM; in the assay with NCI/ADR-RES ovarian, 35.1 µM; in the assay on OVCAR-4 ovarian, 32.8 µM; in the assay on UACC-257 melanoma, 35.8 µM.
Turning to `O=C(Nc1cccc(C(F)(F)F)c1)Nc1cccc(C(F)(F)F)c1`, the GI50 with ACHN renal is 0.422 µM; with COLO 205 colon, 0.985 µM; in the assay with HOP-92 NSCLC, 0.786 µM; in the assay with MCF7 breast, 0.852 µM; with MDA-MB-435, 1.44 µM; in the assay on NCI-H226 lung, 1.01 µM. For the same molecule, the GI50 with NCI-H460 lung was 0.441 µM; in the assay on NCI/ADR-RES ovarian it was 0.651 µM; with OVCAR-4 ovarian, 0.679 µM; in the assay on UACC-257 melanoma, 1.31 µM. In addition, the TGI with ACHN renal turned out to be 7.6 µM; with COLO 205 colon, 2.59 µM; in the assay with HOP-92 NSCLC it was 6.08 µM; in the assay on MCF7 breast, 10 µM; in the assay on MDA-MB-435, 5.51 µM; with NCI-H226 lung it was 3.66 µM. Besides, the TGI with NCI-H460 lung worked out at 5.73 µM; in the assay on NCI/ADR-RES ovarian it was 4.84 µM; in the assay on OVCAR-4 ovarian, 13.7 µM; in the assay with UACC-257 melanoma, 4.95 µM.
Consider `CCNC(=O)C#Cc1ccc2c(C(=Nc3ccc(CN(C)C)cc3)c3ccccc3)c(O)[nH]c2c1`, for which the GI50 was 0.265 µM in the assay on ACHN renal; 0.00363 µM in the assay with COLO 205 colon; 0.00812 µM with HOP-92 NSCLC; 0.0458 µM in the assay on MCF7 breast; 0.0127 µM with MDA-MB-435; 0.314 µM in the assay on NCI-H226 lung. Further, the GI50 was 0.0106 µM in the assay on NCI-H460 lung, 1.7 µM in the assay with NCI/ADR-RES ovarian, 0.61 µM in the assay on OVCAR-4 ovarian and 0.0216 µM in the assay with UACC-257 melanoma. For the same molecule, the TGI with ACHN renal was 2.58 µM; in the assay on COLO 205 colon, 0.0711 µM; in the assay with HOP-92 NSCLC, 0.0532 µM; in the assay with MCF7 breast, 4.59 µM; with MDA-MB-435, 2.51 µM; in the assay with NCI-H226 lung, > 10 µM. Also, the TGI with NCI-H460 lung is 1.96 µM; with NCI/ADR-RES ovarian, > 10 µM; with OVCAR-4 ovarian, 7.63 µM; in the assay on UACC-257 melanoma, 0.114 µM.
In the case of `COc1cc(-c2nc3sccn3c2-c2ccnc(NCCNS(=O)(=O)c3ccc(F)cc3)n2)ccc1F`, the GI50 in the assay with ACHN renal was 1.53 µM; with COLO 205 colon, 1.98 µM; in the assay with HOP-92 NSCLC, 2.49 µM; with MCF7 breast, 2 µM; in the assay with MDA-MB-435 it was 1.11 µM; with NCI-H226 lung, 1.95 µM. Further, the GI50 with NCI-H460 lung was 2.44 µM; in the assay with NCI/ADR-RES ovarian it was 1.94 µM; with OVCAR-4 ovarian, 3.4 µM; in the assay with UACC-257 melanoma, 3.88 µM. In addition, the TGI was > 100 µM in the assay with ACHN renal; > 100 µM in the assay on COLO 205 colon; > 100 µM with HOP-92 NSCLC; > 100 µM in the assay with MCF7 breast; 5.5 µM with MDA-MB-435; 6.05 µM in the assay with NCI-H226 lung. Further, the TGI in the assay on NCI-H460 lung, in the assay with NCI/ADR-RES ovarian, in the assay with OVCAR-4 ovarian and in the assay on UACC-257 melanoma was > 100 µM each time.
With `CN1CCN(C(=O)COc2ccc(C34CC5CC(CC(C5)C3)C4)cc2)CC1`, the GI50 was 17.2 µM in the assay with ACHN renal; 5.53 µM in the assay on COLO 205 colon; 1.47 µM with HOP-92 NSCLC; 12.7 µM in the assay on MCF7 breast; 14.6 µM in the assay with MDA-MB-435; 14 µM in the assay with NCI-H226 lung. The GI50 with NCI-H460 lung is 13.2 µM; with NCI/ADR-RES ovarian, 21.7 µM; in the assay on OVCAR-4 ovarian, 20.8 µM; in the assay with UACC-257 melanoma, 12.8 µM. Moreover, the TGI is 39.5 µM in the assay on ACHN renal; 20.5 µM in the assay with COLO 205 colon; 7.23 µM in the assay with HOP-92 NSCLC; 29.7 µM in the assay with MCF7 breast; 28.8 µM with MDA-MB-435; 37.4 µM with NCI-H226 lung. Besides, the TGI with NCI-H460 lung stood at 27.5 µM; in the assay with NCI/ADR-RES ovarian, 84.4 µM; in the assay with OVCAR-4 ovarian, 76.9 µM; with UACC-257 melanoma, 31.9 µM.
`CC#Cc1ccc(-c2ccccc2)s1`: the TGI in the assay with ACHN renal, with COLO 205 colon, in the assay with HOP-92 NSCLC, in the assay with MCF7 breast, in the assay on MDA-MB-435 and with NCI-H226 lung was > 100 µM each time. For the same molecule, the TGI in the assay with NCI-H460 lung, in the assay with NCI/ADR-RES ovarian, in the assay with OVCAR-4 ovarian and in the assay with UACC-257 melanoma was > 100 µM in each case.
In the case of `O=C(O)C(Cl)Cl`, the GI50 with ACHN renal is 5700 µM and > 10000 µM; with COLO 205 colon, > 10000 µM; in the assay with HOP-92 NSCLC it was 3630 µM and > 10000 µM; in the assay with MCF7 breast it was 5560 µM and > 10000 µM; with MDA-MB-435 it was 5460 µM and > 10000 µM; in the assay on NCI-H226 lung, 8130 µM and > 10000 µM. In addition, the GI50 in the assay with NCI-H460 lung was 6070 µM and > 10000 µM; in the assay with NCI/ADR-RES ovarian it was 7660 µM and > 10000 µM; in the assay with OVCAR-4 ovarian, 3300 µM and 8520 µM; in the assay with UACC-257 melanoma it was > 10000 µM. Further, the TGI in the assay on ACHN renal, with COLO 205 colon, with HOP-92 NSCLC, in the assay with MCF7 breast, in the assay with MDA-MB-435 and in the assay with NCI-H226 lung was > 10000 µM in each case. For the same molecule, the TGI with NCI-H460 lung, in the assay on NCI/ADR-RES ovarian, in the assay with OVCAR-4 ovarian and with UACC-257 melanoma was > 10000 µM in each case.
Take `O=C1c2c(F)c(F)c(F)c(F)c2C(=O)N1c1ccc(F)cc1F`: the GI50 with ACHN renal was 10.1 µM; with COLO 205 colon, 10.9 µM; in the assay with HOP-92 NSCLC it was 13.8 µM; in the assay on MCF7 breast, 12.9 µM; with MDA-MB-435, 13.9 µM; in the assay with NCI-H226 lung, 17.2 µM. In addition, the GI50 with NCI-H460 lung is 9.35 µM; in the assay with NCI/ADR-RES ovarian, 7.55 µM; in the assay with OVCAR-4 ovarian, 16.9 µM; in the assay on UACC-257 melanoma, 21.8 µM. In addition, the TGI with ACHN renal is 23 µM; in the assay on COLO 205 colon, 35.7 µM; with HOP-92 NSCLC, 31.9 µM; in the assay on MCF7 breast, > 55.9 µM; in the assay with MDA-MB-435 it was 38.3 µM; with NCI-H226 lung, 50.8 µM. Also, the TGI with NCI-H460 lung is > 51 µM; in the assay on NCI/ADR-RES ovarian, 30.5 µM; in the assay with OVCAR-4 ovarian, 53.3 µM; in the assay with UACC-257 melanoma, 57.2 µM.
